Test results published in patent US7855076B2, “Use of discoidin domain receptor 1 (DDR1) and agents that affect the DDR1/collagen pathway” (The United States of America as represented by the …, priority 2002, dated 2010).

What was measured:
Format in all cases: cell-based, human
[1] = tested on: GM-macrophages; experiment: HLA-DR expression on GM-macrophages; conditions: pretreatment of 5-day GM-macrophages, 30 minutes
Protocol: The leukocyte-rich preparation was overlaid on Accu-prep in 50 ml tubes and the tubes were centrifuged at 800×g for 20 minutes at room temperature. PBMC fractions were collected, washed once with PBS at room temperature and twice with complete medium at 4° C. and resuspended in the same medium. Monocytes were further purified by using iso-osmotic Percoll gradient. At this stage, the purity of monocytes was higher than 90%. The cells (5×10^5/ml) were allowed to adhere to the surface of 6-well plates. After a 5-hour incubation at 37° C., nonadherent cells were removed and adherent cells were induced to differentiate into macrophages by incubation in the presence of GM-CSF (50 ng/ml) for 5 to 7 days to produce GM-CSF-induced macrophages (GM-macrophages). Five-day GM-macrophages were incubated for additional 2 days with GM-CSF in the presence of an agonistic anti-human DDR1 monoclonal mouse against the extracellular domain of DDR1 (IgM 513). To measure the effect of SB203580, 5-day GM-macrophages were pretreated with SB203580, for 30 minutes.

[2] = tested on: PMN; experiment: MCP-1 release by PMN (neutrophils), ELISA
Protocol: Human PMN and peripheral blood mononuclear cells (PBMC) were obtained from heparinized blood from human donors (10 units of heparin per ml of blood). One volume of 5% dextran (T-500 Pharmacia, Piscataway, N.J.) in phosphate buffered saline (PBS) was added to three volumes of blood in 50 ml polypropylene tubes. After a 40 minute incubation at room temperature, the leukocyte-rich plasma layer was removed and overlaid onto Lymphoprep in 50 ml tubes and the tubes were centrifuged at 800×g for 20 minutes at room temperature. PMN were separated from erythrocytes by lysis in 0.2% NaCl, washed in complete medium three times at 4° C. and resuspended in complete medium. PBMC contained in the PMN preparations obtained by this method were less than 0.5% by morphologic examination. Cell viability was higher than 98% by trypan blue staining.
A panel of cytokines was previously tested for their ability to induce MCP-1 production in PMN and it was reported that TNF-α and IFN-γ could cooperate to induce a high level of MCP-1 production (Yamashiro et al., J. Leukoc. Biol. 69:698, 2001). […] The majority of MCP-1 was released between 24 hours and 48 hours, showing a delayed kinetics of MCP-1 release. […] The effect of IFN-γ was dose-dependent.
To confirm that activation of DDR1 was responsible for the increased release of MCP-1 by PMN treated with IFN-γ and collagen, 513 anti-DDR1 Ab was used instead of collagen. The concentrations of MCP-1 were measured in the Lymphokine Testing Laboratory, Clinical Services Program, SAIC-Frederick (Frederick, Md.) with an ELISA kit (R&D Systems) specific for human MCP-1.

[3] = tested on: THP-1 cells; experiment: Proliferation of PMA-treated THP-1 cells; conditions: DDR1b-overexpressing cells on collagen-coated plates, 10 nM PMA, 24 hour and 48 hour, compared with parental, mock or DDR1a cells
Protocol: One hundred μl of cell suspension (5×10^6/ml) were plated in 96-well tissue culture plates either uncoated or collagen-coated, and incubated at 37° C. in the presence of 10 nM phorbol 12-myristate 13 acetate (PMA) for 24 or 48 hours (FIG. 4A). Data are shown as the mean ±SD of 10 wells. *p<0.01 by Bonferroni/Dun with One Way Factorial ANOVA. Twenty μl of each cell lysate were loaded and Western blotting was performed. The expression levels of DDR1 in DDR1a- or DDR1b-overexpressing THP-1 cells before and after treatment with PMA plus collagen are shown in FIG. 4C. […]
One hundred μl of cell suspension (5×10^6/ml) were plated in 96-well tissue culture plates either collagen-coated or non-coated, and incubated at 37° C. in 5% CO2 humidified atmosphere in the presence of 10 nM PMA for 48 hours. Cell proliferation was measured by using the CellTiter 96 Aqueous Non-Radioactive Cell Proliferation Assay Kit (Promega, Madison, Wis.) according to the manufacture's protocol. Trypan-blue staining was also used to measure the number of live cells in each culture.

[4] = tested on: MCP-1 mRNA; experiment: MCP-1 mRNA expression in PMA-treated THP-1 cells by Northern blotting
Protocol: The effect of collagen-activation on the expression of MCP-1 mRNA in PMA-treated parental, mock-transduced, DDR1a-overexpressing, and DDR1b-overexpressing THP-1 cells was measured by Northern blotting. THP-1 cells were cultured at the cell density of 5×10^6, cells/ml in the complete medium in the presence of 10 nM PMA in 6 well tissue culture plates that were either uncoated or collagen-coated. Total RNA was extracted from each culture by using TRIZOL reagent® and Northern blot analysis was performed as described (Yoshimura, J. Immunol. 150:5025, 1993). IL-1β cDNA was obtained by RT-PCR from a human monocyte cDNA library using the following primer pair: sense primer 5′-[…]-3′ (SEQ ID NO: 13) and anti-sense primer 5′-[…]-3′ (SEQ ID NO: 14). Each cDNA was labeled with [α-^32P]dCTP using Rediprime™ II random prime labeling system (Amersham Pharmacia Biotech).

Molecule	agonistic antibody-induced increase of HLA-DR-positive cells [1]	effect on MCP-1 production ([2]; GM-CSF-treated PMN)	effect on MCP-1 production ([2]; PMN treated with TNF-α plus IFN-γ or INF-α plus IFN-γ plus GM-CSF)	effect on MCP-1 production ([2]; PMN, no cytokine or TNF-α added)	decrease of proliferation [3]	level of MCP-1 mRNA expression ([4]; PMA-treated DDR1b-overexpressing cells on collagen-coated plates)	MCP-1 mRNA expression ([4]; PMA-treated parental cells)
C[S+]([O-])c1ccc(-c2nc(-c3ccncc3)c(-c3ccc(F)cc3)[nH]2)cc1 (stereo not shown) [SB203580]	completely inhibited	–	–	–	–	–	–
collagen	–	no significant effect	negative effect	no significant effect	about 50%	rapidly up-regulated	no effect
